logP data for ten molecules are collected here from the SangsterLogP compilation.

As usually defined, the logP is a log measure of how a compound divides between an organic and an aqueous phase. The low end stands for lower lipophilicity, the high end for higher lipophilicity.

The structures appear in SMILES notation.

The data set in a line: method code RP-HPLC, from DOI: 10.1021/jm030408h, PMID: 14971904.
`OC(CNCC(O)C1CCc2cc(F)ccc2O1)C1CCc2cc(F)ccc2O1` (stereo not given) gave a logP of 2.76.
Under `CCc1nn(CCCN2CCN(c3cccc(Cl)c3)CC2)c(=O)n1CCOc1ccccc1` stands 4.95; under `C[N+](C)([O-])CCC=C1c2ccccc2CCc2ccccc21`, 3.14; under `CCC(C)n1ncn(-c2ccc(N3CCN(c4ccc(OC[C@H]5CO[C@](Cn6cncn6)(c6ccc(Cl)cc6Cl)O5)cc4)CC3)cc2)c1=O` (stereo not given in full), 5.9.
For `CC[C@H]1OC(=O)[C@H](C)[C@@H](O[C@H]2C[C@@](C)(OC)[C@@H](O)[C@H](C)O2)[C@H](C)[C@@H](O[C@@H]2O[C@H](C)C[C@H](N(C)C)[C@H]2O)[C@](C)(O)C[C@@H](C)CN(C)[C@H](C)[C@@H](O)[C@]1(C)O` the value was 0.9.
Under `COc1ccc2c3c1O[C@H]1C(=O)CC[C@@]4(O)[C@@H](C2)N(C)CC[C@]314` stands 0.37; under `CN1CC(C(=O)NC2(C)OC3(O)C4CCCN4C(=O)C(Cc4ccccc4)N3C2=O)C=C2c3cccc4[nH]cc(c34)CC21` (stereo not given), 4.38.
`C#CCCCC(=O)c1cc(C(C)(C)C)c(O)c(C(C)(C)C)c1` showed a lipophilicity (logP) of 5.63.
Under `CCCCCc1cc(O)c2c(c1)OC(C)(C)[C@@H]1CCC(C)=C[C@@H]21` stands 6.99; under `COc1ccc2c3c1O[C@H]1C[C@@H](O)C=C[C@@]31CCN(C)C2`, 0.21.
